Experimental data: ChEMBL document CHEMBL1821717, “Synthesis and biochemical evaluation of triazole/tetrazole-containing sulfonamides against thrombin and related serine proteases” (Bioorg Med Chem Lett, 2011)

Columns and labels:
Homo sapiens = species on record: Homo sapiens; experiment: Inhibition of human tryptase assessed as residual enzyme activity using chromogenic H-D-HHT-Ala-Arg-pNA 2AcOH as substrate at 10 uM pre-incubated for 10 mins measured for 30 mins by spectrophotometry relative to untreated control
Chymase (Homo sapiens) = molecular target: T1, Chymase (Homo sapiens) (UniProt P23946); experiment: Inhibition of human chymase assessed as residual enzyme activity using chromogenic N-succinyl-Ala-Ala-Pro-Phe p-nitroanilide as substrate at 10 uM pre-incubated for 10 mins by spectrophotometry relative to untreated control; format: single protein
T1 sequence (whole entry): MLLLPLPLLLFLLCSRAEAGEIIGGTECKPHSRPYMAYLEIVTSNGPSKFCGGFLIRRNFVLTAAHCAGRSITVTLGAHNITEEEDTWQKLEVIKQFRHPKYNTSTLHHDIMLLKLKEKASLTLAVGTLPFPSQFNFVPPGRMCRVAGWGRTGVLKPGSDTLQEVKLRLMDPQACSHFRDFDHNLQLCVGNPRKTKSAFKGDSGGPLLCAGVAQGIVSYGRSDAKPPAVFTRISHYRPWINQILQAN

[1] = Inhibition of bovine pancreatic trypsin using chromogenic N-alpha-bemzoyl-arginine ethyl ester hydrochloride as substrate pre-incubated for 10 mins by spectrophotometry; set-up: species or system Bos taurus
[2] = Ratio of Ki for bovine pancreatic trypsin to Ki for human thrombin

Compound	Ratio (Homo sapiens)	Ratio (Chymase (Homo sapiens))	Ki [1] [µM]	Ratio Ki [2]
O=S(=O)(/C=C/c1cccc(Cl)c1)Nc1cccc(-c2nnn(Cc3cccc(Cl)c3)n2)c1	1	0.97		
O=S(=O)(/C=C/c1cccc(C(F)(F)F)c1)Nc1cccc(-c2nnn(Cc3cccc(Cl)c3)n2)c1	1	0.97		
O=S(=O)(/C=C/c1cccc(Br)c1)Nc1cccc(-c2nnn(Cc3cccc(Cl)c3)n2)c1	1	0.95		
O=S(=O)(/C=C/c1cccc(C(F)(F)F)c1)Nc1cccc(OCc2cn(Cc3cccnc3)nn2)c1	0.96	1		
O=S(=O)(/C=C/c1cccc(F)c1)Nc1cccc(OCc2cn(Cc3cc4ccccc4s3)nn2)c1	0.95	0.95	119	48
O=[N+]([O-])c1cccc(/C=C/S(=O)(=O)Nc2cccc(OCc3cn(Cc4cc5ccccc5[nH]4)nn3)c2)c1	0.98	1		
O=[N+]([O-])c1cccc(/C=C/S(=O)(=O)Nc2cccc(-c3nnn(Cc4cccc(Cl)c4)n3)c2)c1	1	0.94		
O=[N+]([O-])c1cccc(/C=C/S(=O)(=O)Nc2cccc(OCc3cn(Cc4cccnc4)nn3)c2)c1	1	1		
Cc1cccc(/C=C/S(=O)(=O)Nc2cccc(-c3nnn(Cc4cccc(Cl)c4)n3)c2)c1	1	0.99		
COc1cccc(/C=C/S(=O)(=O)Nc2cccc(-c3nnn(Cc4cccc(Cl)c4)n3)c2)c1	1	1		
O=S(=O)(/C=C/c1cccc(F)c1)Nc1cccc(-c2nnn(Cc3cccc(Cl)c3)n2)c1	0.97	0.91		
CS(=O)(=O)Nc1cccc(-c2nnn(Cc3cccc(Cl)c3)n2)c1	0.97	0.95		
O=[N+]([O-])c1cccc(/C=C/S(=O)(=O)Nc2cccc(OCc3cn(Cc4cc5ccccc5s4)nn3)c2)c1	1	0.89	122	71
O=S(=O)(/C=C/c1cccc(C(F)(F)F)c1)Nc1cccc(OCc2cn(Cc3cc4ccccc4s3)nn2)c1	0.97	0.99	127	64
O=[N+]([O-])c1cccc(/C=C/S(=O)(=O)Nc2cccc(OCc3cn(Cc4nc5ccccc5s4)nn3)c2)c1	1	0.95	187	41
Nc1cccc(/C=C/S(=O)(=O)Nc2cccc(OCc3cn(Cc4cc5ccccc5s4)nn3)c2)c1	0.99	0.88	71	41
O=S(=O)(/C=C/c1cccc(F)c1)Nc1cccc(OCc2cn(Cc3cccnc3)nn2)c1	1	0.99		

Second part, the molecule after the results:

Ratio (Homo sapiens)	Ratio (Chymase (Homo sapiens))	Ki [1] [µM]	Ratio Ki [2]	Compound
0.99	1			O=S(=O)(/C=C/c1cccc(Cl)c1)Nc1cccc(OCc2cn(Cc3cc4ccccc4[nH]3)nn2)c1
0.98	0.96			O=S(=O)(/C=C/c1cccc(Cl)c1)Nc1cccc(OCc2cn(Cc3ccsc3Br)nn2)c1
0.95	0.97			O=S(=O)(/C=C/c1cccc(Cl)c1)Nc1cccc(OCc2cn(Cc3cccc(Cl)c3)nn2)c1
		729		O=S(=O)(/C=C/c1cccc(Cl)c1)Nc1cccc(OCc2cn(Cc3cc4ccccc4s3)nn2)c1
0.99	0.98			O=S(=O)(/C=C/c1cccc(Cl)c1)Nc1cccc(OCc2cn(Cc3cccnc3)nn2)c1
0.97	1			O=S(=O)(/C=C/c1cccc(Cl)c1)Nc1cccc(OCc2cn(Cc3ccccc3)nn2)c1
0.98	1			O=S(=O)(/C=C/c1cccc(Cl)c1)Nc1cccc(OCc2cn(Cc3nc4ccccc4s3)nn2)c1
0.95	0.99			O=S(=O)(/C=C/c1cccc(Cl)c1)Nc1cccc(OCc2cn(Cc3ccsc3)nn2)c1
